From ChEMBL document CHEMBL4483862, “Open-source discovery of chemical leads for next-generation chemoprotective antimalarials” (2018)

Test system: Plasmodium berghei
Assay: Luciferase/luciferin-expressing antifolate-resistant parasites were used to infect a culture of HepG2 cells that were pre-incubated with compounds. Infected hepatocytes emit light due to the luciferase reaction. Assay results are presented as the percent inhibition of light emission compared to control. […]
Type: functional
Conditions: sporozoite; for IC90: read-out: LUCIFERASE INFECTION ASSAY - IC90

## Cc1sc2ncnc(N3CCC(C(=O)N(CC(C)C)c4nc5ccccc5s4)CC3)c2c1C
PBLUC_HILL_SLOPE 1.15, PBLUC_R_SQUARED 0.711, read-out: LUCIFERASE INFECTION ASSAY - IC50
  IC50: 4.09 µM
  IC90: > 10 µM

## O/N=C(\c1ccc(Cl)cc1)c1cc2ccccc2o1
PBLUC_HILL_SLOPE 1.16, PBLUC_R_SQUARED 0.26, read-out: LUCIFERASE INFECTION ASSAY - IC50
  IC50: 6.29 µM
  IC90: > 12.1 µM

## Nc1ccc(-c2cn3c(-c4cccc(Cl)c4)cnc3cn2)cn1
PBLUC_HILL_SLOPE 1.1, PBLUC_R_SQUARED 0.459, read-out: LUCIFERASE INFECTION ASSAY - IC50
  IC50: 5.57 µM
  IC90: > 10.3 µM

## OCc1ccc(-c2cn3c(-c4ccc5c(c4)OCO5)cnc3cn2)cc1
PBLUC_HILL_SLOPE 1.17, PBLUC_R_SQUARED 0.649, read-out: LUCIFERASE INFECTION ASSAY - IC50
  IC50: 3.91 µM
  IC90: > 9.56 µM

## COc1ccccc1-c1nc(-c2ccc(CCCNC(C)=O)cc2)cs1
PBLUC_HILL_SLOPE 1.19, PBLUC_R_SQUARED 0.431, read-out: LUCIFERASE INFECTION ASSAY - IC50
  IC50: 5.36 µM
  IC90: > 10 µM

## CC1(C)CC(=O)C=C(Nc2ccc(Oc3ccccc3)cc2)C1
PBLUC_HILL_SLOPE 1.19, PBLUC_R_SQUARED 0.428, read-out: LUCIFERASE INFECTION ASSAY - IC50
  IC50: 2.19 µM
  IC90: > 10.7 µM

## O=C(N/N=C/c1ccc(F)cc1)c1ccc[n+]([O-])c1
PBLUC_HILL_SLOPE 1.11, PBLUC_R_SQUARED 0.152, read-out: LUCIFERASE INFECTION ASSAY - IC50
  IC50: 5.8 µM
  IC90: > 10 µM

## CN=C1NN=C(c2cc(C)n(-c3ccc(OC)cc3)c2C)CS1
PBLUC_HILL_SLOPE 1.15, PBLUC_R_SQUARED 0.417, read-out: LUCIFERASE INFECTION ASSAY - IC50
  IC50: > 10 µM
  IC90: > 10 µM

## CCCc1cc(NCc2cccnc2)n2nc(C)c(-c3ccccc3)c2n1
PBLUC_HILL_SLOPE 1.13, PBLUC_R_SQUARED 0.661, read-out: LUCIFERASE INFECTION ASSAY - IC50
  IC50: 3.19 µM
  IC90: > 9.23 µM

## COc1ccc(C2CC(=O)c3c(n[nH]c3C)C2)cc1 (stereo not given)
PBLUC_HILL_SLOPE 1.11, PBLUC_R_SQUARED 0.36, read-out: LUCIFERASE INFECTION ASSAY - IC50
  IC50: 4.45 µM
  IC90: > 12.9 µM

## Nc1c(C(=O)Nc2cccc(F)c2)sc2nc3c(cc12)N1CCC3CC1
PBLUC_HILL_SLOPE 1.17, PBLUC_R_SQUARED 0.5, read-out: LUCIFERASE INFECTION ASSAY - IC50
  IC50: 1.98 µM
  IC90: > 8.96 µM

## CCOC(=O)c1c(NC(=O)CNc2ccccc2CN(C)C2CCCCC2)sc(CC)c1C
PBLUC_HILL_SLOPE 1.16, PBLUC_R_SQUARED 0.382, read-out: LUCIFERASE INFECTION ASSAY - IC50
  IC50: 3.12 µM
  IC90: > 10 µM

## Cc1ccc(Sc2ccc(/C=C/c3cc(C(=O)O)c4ccccc4n3)cc2[N+](=O)[O-])cc1
PBLUC_HILL_SLOPE 1.12, PBLUC_R_SQUARED 0.368, read-out: LUCIFERASE INFECTION ASSAY - IC50
  IC50: 8.94 µM
  IC90: > 10 µM

## Clc1ccccc1/C=N/Nc1nc(-c2cc(-c3ccccc3)no2)cs1
PBLUC_HILL_SLOPE 1.1, PBLUC_R_SQUARED 0.687, read-out: LUCIFERASE INFECTION ASSAY - IC50
  IC50: 6.48 µM
  IC90: > 8.66 µM

## COc1ccc(-c2nn(-c3ccccc3)cc2/C=C/C(=O)NCCc2cn3ccccc3n2)cc1OC
PBLUC_HILL_SLOPE 1.11, PBLUC_R_SQUARED 0.206, read-out: LUCIFERASE INFECTION ASSAY - IC50
  IC50: > 10 µM
  IC90: > 10 µM

## CCc1c2c(nc3sc(C(=O)Nc4nsc(-c5ccccc5)n4)c(N)c13)CC(C)(C)CC2=O
PBLUC_HILL_SLOPE 1.15, PBLUC_R_SQUARED 0.361, read-out: LUCIFERASE INFECTION ASSAY - IC50
  IC50: 6.36 µM
  IC90: > 10 µM

## O=C(NCCNc1ccc2ccccc2c1)c1cc2ccccc2nc1Cl
PBLUC_HILL_SLOPE 1.17, 2.29, PBLUC_R_SQUARED 0.341, 0.725, read-out: LUCIFERASE INFECTION ASSAY - IC50
  IC50: 5.88 µM
  IC90: > 10 µM

## Cc1ccc(CNC(=O)c2ccc(/C=C3\SC(=O)NC3=O)cc2)cc1
PBLUC_HILL_SLOPE 1.15, PBLUC_R_SQUARED 0.802, read-out: LUCIFERASE INFECTION ASSAY - IC50
  IC50: 2.5 µM
  IC90: > 10 µM

## O=C(NC1CC1)c1ccc(-c2cnc3cnc(-c4cccs4)cn23)cc1
PBLUC_HILL_SLOPE 1.19, PBLUC_R_SQUARED 0.184, read-out: LUCIFERASE INFECTION ASSAY - IC50
  IC50: > 9.16 µM
  IC90: > 9.16 µM

## N=C1c2ccccc2CN1NC(=O)CCCOc1ccc(Cl)cc1Cl
PBLUC_HILL_SLOPE 1.16, PBLUC_R_SQUARED 0.64, read-out: LUCIFERASE INFECTION ASSAY - IC50
  IC50: 1.1 µM
  IC90: 7.29 µM

## Fc1ccc(-c2nc3ccccc3n2-c2cc(-c3ccccc3)n[nH]2)cc1
PBLUC_HILL_SLOPE 1.15, 2.25, PBLUC_R_SQUARED 0.601, 0.956, read-out: LUCIFERASE INFECTION ASSAY - IC50
  IC50: 1.58 µM
  IC90: 5.27 µM

## O=C(Nc1nc2cc3c(cc2s1)OCCO3)c1cccc2c[nH]nc12
PBLUC_HILL_SLOPE 1.1, PBLUC_R_SQUARED 0.666, read-out: LUCIFERASE INFECTION ASSAY - IC50
  IC50: 0.0549 µM
  IC90: 0.404 µM

## Cc1ccc(-n2c(-c3ccc(F)cc3)nc3c2C(=O)c2ccccc2C3=O)cc1
PBLUC_HILL_SLOPE 1.1, PBLUC_R_SQUARED 0.595, read-out: LUCIFERASE INFECTION ASSAY - IC50
  IC50: 1.88 µM
  IC90: > 10 µM

## CCC(NC(=O)NCc1ccccc1S(=O)(=O)N1CCCCC1)c1ccc(Cl)cc1 (stereo not given)
PBLUC_HILL_SLOPE 1.14, PBLUC_R_SQUARED 0.117, read-out: LUCIFERASE INFECTION ASSAY - IC50
  IC50: > 10 µM
  IC90: > 10 µM

## CCCn1c(NC(=O)Cc2csc(NC(=O)c3ccco3)n2)nc2ccccc21
PBLUC_HILL_SLOPE 1.19, PBLUC_R_SQUARED 0.0275, read-out: LUCIFERASE INFECTION ASSAY - IC50
  IC50: > 10 µM
  IC90: > 10 µM

## CCNC(=S)N/N=C/c1cc(Cl)cc(Cl)c1O
PBLUC_HILL_SLOPE 1.17, PBLUC_R_SQUARED 0.411, read-out: LUCIFERASE INFECTION ASSAY - IC50
  IC50: > 11.3 µM
  IC90: > 11.3 µM

## OC1CCN(c2ccnc3c(-c4ccc5ccccc5c4)cnn23)CC1
PBLUC_HILL_SLOPE 1.1, PBLUC_R_SQUARED 0.73, read-out: LUCIFERASE INFECTION ASSAY - IC50
  IC50: 0.129 µM
  IC90: 0.96 µM

## OC[C@H]1O[C@@H](c2nc(-c3nc(-c4ccc5[nH]ccc5c4)no3)cs2)[C@H](O)[C@@H]1O
PBLUC_HILL_SLOPE 1.16, PBLUC_R_SQUARED 0.583, read-out: LUCIFERASE INFECTION ASSAY - IC50
  IC50: 0.232 µM
  IC90: 1.55 µM

## CN1CCCN(C(=O)CCNC(=O)/C=C/c2ccco2)c2nc3ccccc3nc21
PBLUC_HILL_SLOPE 1.1, PBLUC_R_SQUARED 0.699, read-out: LUCIFERASE INFECTION ASSAY - IC50
  IC50: 1.78 µM
  IC90: > 10 µM

## Cc1cc(C)c(NC(=O)CNc2nn3cc(-c4ccccc4)nc3s2)c(C)c1
PBLUC_HILL_SLOPE 1.1, PBLUC_R_SQUARED 0.432, read-out: LUCIFERASE INFECTION ASSAY - IC50
  IC50: 1.54 µM
  IC90: > 10 µM

## COCCOc1ccc(C(F)(F)F)cc1NC(=O)c1ccc2ncsc2c1
PBLUC_HILL_SLOPE 1.17, PBLUC_R_SQUARED 0.0937, read-out: LUCIFERASE INFECTION ASSAY - IC50
  IC50: 8.48 µM
  IC90: > 10 µM

## CNc1cc(C(C)C)nc2c(-c3ccccc3)cnn12
PBLUC_HILL_SLOPE 1.1, PBLUC_R_SQUARED 0.428, read-out: LUCIFERASE INFECTION ASSAY - IC50
  IC50: 9.54 µM
  IC90: > 12.4 µM

## COCCNC(=O)C1CCN(C(C(=O)c2c[nH]c3ccccc23)c2ccccc2)CC1 (stereo not given)
PBLUC_HILL_SLOPE 1.13, PBLUC_R_SQUARED 0.77, read-out: LUCIFERASE INFECTION ASSAY - IC50
  IC50: 0.636 µM
  IC90: 4.42 µM

## N#Cc1cc(NS(=O)(=O)c2c[nH]c(C(=O)N3CCCC3)c2)ccc1Cl
PBLUC_HILL_SLOPE 1.14, PBLUC_R_SQUARED 0.85, read-out: LUCIFERASE INFECTION ASSAY - IC50
  IC50: 5.33 µM
  IC90: > 10 µM

## Cc1nn(-c2ccccc2Cl)c2sc(C(=O)Nc3ccc(N4CCN(C)CC4)nc3)cc12
PBLUC_HILL_SLOPE 1.19, PBLUC_R_SQUARED 0.233, read-out: LUCIFERASE INFECTION ASSAY - IC50
  IC50: 5.77 µM
  IC90: > 10 µM

## Cc1cc(/C=N/Nc2ccccc2[N+](=O)[O-])c(C)n1CC(C)C
PBLUC_HILL_SLOPE 1.12, PBLUC_R_SQUARED 0.805, read-out: LUCIFERASE INFECTION ASSAY - IC50
  IC50: 1.17 µM
  IC90: 8.36 µM

## Cn1c(NCc2ccccc2)nc2cnc(Nc3cccc(C(F)(F)F)c3)cc21
PBLUC_HILL_SLOPE 1.17, PBLUC_R_SQUARED 0.452, read-out: LUCIFERASE INFECTION ASSAY - IC50
  IC50: 4.08 µM
  IC90: > 10 µM

## O=S(=O)(Nc1cccc(C(F)(F)F)c1)c1c(F)c(Br)cc(F)c1Br
PBLUC_HILL_SLOPE 1.15, PBLUC_R_SQUARED 0.311, read-out: LUCIFERASE INFECTION ASSAY - IC50
  IC50: > 6.67 µM
  IC90: > 6.67 µM

## O=C(Nc1nc2ccccc2[nH]1)c1cc2ccccc2cc1O
PBLUC_HILL_SLOPE 1.13, 0.699, PBLUC_R_SQUARED 0.533, 0.940, read-out: LUCIFERASE INFECTION ASSAY - IC50
  IC50: 1.94 µM
  IC90: > 10 µM

## Cc1c(C(=O)Nc2nc3c(s2)CCCCC3)[nH]c2c1C(=O)CC(C)(C)C2
PBLUC_HILL_SLOPE 1.1, PBLUC_R_SQUARED 0.304, read-out: LUCIFERASE INFECTION ASSAY - IC50
  IC50: 2.21 µM
  IC90: > 10 µM
